Reference: ChEMBL document CHEMBL4483862, “Open-source discovery of chemical leads for next-generation chemoprotective antimalarials” (2018)

System: Plasmodium berghei
Experiment: Luciferase/luciferin-expressing antifolate-resistant parasites were used to infect a culture of HepG2 cells that were pre-incubated with compounds. Infected hepatocytes emit light due to the luciferase reaction. Assay results are presented as the percent inhibition of light emission compared to control. […]
Format: functional
Details: sporozoite; for IC90: read-out: LUCIFERASE INFECTION ASSAY - IC90

| SMILES | IC90 [µM] | other results |
| --- | --- | --- |
| FC(F)(F)c1nc2ccccc2n2c(-c3ccc(Cl)cc3)nnc12 | 3.27 | IC50 (HEPG2TOX_HILL_SLOPE 11.7, HEPG2TOX_R_SQUARED 0.937, PBLUC_HILL_SLOPE 49.4, PBLUC_R_SQUARED 0.195, read-out: LUCIFERASE INFECTION ASSAY - IC50): 3.13 µM |
| COc1ccccc1C(=O)/C=C/c1ccc(N2CCCCC2)c([N+](=O)[O-])c1 | > 10 | IC50 (HEPG2TOX_HILL_SLOPE 11.8, HEPG2TOX_R_SQUARED 0.223, read-out: LUCIFERASE INFECTION ASSAY - IC50): > 10 µM |
| O=C(Cn1ncc(Cl)c(Cl)c1=O)N1CCN(S(=O)(=O)c2ccc3ccccc3c2)CC1 | > 10 | IC50 (HEPG2TOX_HILL_SLOPE 11.9, 3.77, HEPG2TOX_R_SQUARED 0.663, 0.998, PBLUC_HILL_SLOPE 2.89, PBLUC_R_SQUARED 0.527, read-out: LUCIFERASE INFECTION ASSAY - IC50): 5.1 µM |
| CC1CCCC(C)N1CC(O)COC1CCC(C(C)(C)C)CC1 (configuration not stated) | 3.62 | IC50 (HEPG2TOX_HILL_SLOPE 11.8, HEPG2TOX_R_SQUARED 0.0956, PBLUC_HILL_SLOPE 13.2, PBLUC_R_SQUARED 0.651, read-out: LUCIFERASE INFECTION ASSAY - IC50): 3.06 µM |
| O=C(Nc1ccc(F)cc1F)c1cc(Br)ccc1O | 9.77 | IC50 (HEPG2TOX_HILL_SLOPE 11.9, HEPG2TOX_R_SQUARED 0.641, PBLUC_HILL_SLOPE 14.3, PBLUC_R_SQUARED 0.252, read-out: LUCIFERASE INFECTION ASSAY - IC50): 8.37 µM |
| Cc1ccc(SC(=O)c2c(C)noc2-c2ccc(Cl)cc2)cc1 | > 9.6 | IC50 (HEPG2TOX_HILL_SLOPE 11.7, HEPG2TOX_R_SQUARED 0.856, PBLUC_HILL_SLOPE 3.58, PBLUC_R_SQUARED 0.522, read-out: LUCIFERASE INFECTION ASSAY - IC50): 7.62 µM |
| CC(=O)Nc1ccc(-c2ccnc3n[nH]c(-c4ccsc4)c23)cc1 | 8.76 | IC50 (HEPG2TOX_HILL_SLOPE 11.6, HEPG2TOX_R_SQUARED 0.801, PBLUC_HILL_SLOPE 2.91, PBLUC_R_SQUARED 0.114, read-out: LUCIFERASE INFECTION ASSAY - IC50): 4.12 µM |
| COc1ccccc1C(=O)c1cnc(Nc2cccc(Cc3ccccc3)c2)[nH]1 | > 8.61 | IC50 (HEPG2TOX_HILL_SLOPE 11.7, HEPG2TOX_R_SQUARED 0.773, PBLUC_HILL_SLOPE 15.1, PBLUC_R_SQUARED 0.204, read-out: LUCIFERASE INFECTION ASSAY - IC50): 7.82 µM |
| O=[N+]([O-])c1cc(C(F)(F)F)ccc1Sc1nnc(-c2cc(Cl)cc(Cl)c2)[nH]1 | 7.2 | IC50 (HEPG2TOX_HILL_SLOPE 11.8, HEPG2TOX_R_SQUARED 0.697, PBLUC_HILL_SLOPE 13.2, PBLUC_R_SQUARED 0.063, read-out: LUCIFERASE INFECTION ASSAY - IC50): 6.09 µM |
| Cc1cc(O)cc2c1C(=O)/C(=C/c1ccc(Cl)cc1)O2 | 8.29 | IC50 (HEPG2TOX_HILL_SLOPE 11.8, HEPG2TOX_R_SQUARED 0.8, PBLUC_HILL_SLOPE 6.24, PBLUC_R_SQUARED 0.404, read-out: LUCIFERASE INFECTION ASSAY - IC50): 5.83 µM |
| C(=C(c1nc2ccccc2s1)c1nc2ccccc2s1)c1ccncc1 | 6.3 | IC50 (HEPG2TOX_HILL_SLOPE 11.7, HEPG2TOX_R_SQUARED 0.737, PBLUC_HILL_SLOPE 3.59, 2.80, PBLUC_R_SQUARED 0.729, 0.898, read-out: LUCIFERASE INFECTION ASSAY - IC50): 3.12 µM |
| Cc1ccc(NC(=O)Cn2nnc(-c3ccccc3)n2)cc1S(=O)(=O)N1CCCCCC1 | > 10 | IC50 (HEPG2TOX_HILL_SLOPE 11.8, HEPG2TOX_R_SQUARED 0.86, PBLUC_HILL_SLOPE 22, PBLUC_R_SQUARED 0.334, read-out: LUCIFERASE INFECTION ASSAY - IC50): 9.07 µM |
| COc1cccc(-c2cc3c(Nc4ccc(Oc5ccccc5)cc4)nccc3[nH]2)c1 | 4 | IC50 (HEPG2TOX_HILL_SLOPE 11.8, HEPG2TOX_R_SQUARED 0.973, PBLUC_HILL_SLOPE 14.2, PBLUC_R_SQUARED 0.35, read-out: LUCIFERASE INFECTION ASSAY - IC50): 3.43 µM |
| COC(=O)c1sc(S(C)(=O)=O)c(C#N)c1-c1cccs1 | 5.13 | IC50 (HEPG2TOX_HILL_SLOPE 11.8, HEPG2TOX_R_SQUARED 0.984, PBLUC_HILL_SLOPE 123, PBLUC_R_SQUARED 0.486, read-out: LUCIFERASE INFECTION ASSAY - IC50): 5.04 µM |
| C=c1ccccc1=C1NN=C(Sc2cnn(-c3ccc(C(F)(F)F)cn3)c(=O)c2Cl)N1CC | 5.32 | IC50 (HEPG2TOX_HILL_SLOPE 11.7, 13.0, HEPG2TOX_R_SQUARED 0.881, 0.478, PBLUC_HILL_SLOPE 8.47, PBLUC_R_SQUARED 0.136, read-out: LUCIFERASE INFECTION ASSAY - IC50): 4.11 µM |
| CCCCCn1c(Sc2ncc([N+](=O)[O-])s2)n[nH]c1=O | > 10.5 | IC50 (HEPG2TOX_HILL_SLOPE 11.8, HEPG2TOX_R_SQUARED 0.641, PBLUC_HILL_SLOPE 4, PBLUC_R_SQUARED 0.202, read-out: LUCIFERASE INFECTION ASSAY - IC50): 7 µM |

| SMILES | IC90 [µM] | other results |
| --- | --- | --- |
| Cc1cc(Cl)ccc1OCc1nnc(-c2ccccn2)[nH]1 | 3.63 | IC50 (HEPG2TOX_HILL_SLOPE 11.7, HEPG2TOX_R_SQUARED 0.29, PBLUC_HILL_SLOPE 34.3, PBLUC_R_SQUARED 0.372, read-out: LUCIFERASE INFECTION ASSAY - IC50): 3.41 µM |
| O=C(Nc1cccc(Cl)c1)c1cccc(NC(=O)c2cccs2)c1 | 9.24 | IC50 (HEPG2TOX_HILL_SLOPE 11.6, HEPG2TOX_R_SQUARED 0.635, PBLUC_HILL_SLOPE 2.89, PBLUC_R_SQUARED 0.488, read-out: LUCIFERASE INFECTION ASSAY - IC50): 4.32 µM |
| CCCNC(=O)/C(=C\c1cccc(Br)c1)c1nc2ccccc2[nH]1 | 9.54 | IC50 (HEPG2TOX_HILL_SLOPE 11.6, HEPG2TOX_R_SQUARED 0.535, PBLUC_HILL_SLOPE 4.15, PBLUC_R_SQUARED 0.775, read-out: LUCIFERASE INFECTION ASSAY - IC50): 5.62 µM |
| CCN1C(=O)N(Cc2cccc(OC)c2)C(=O)C12CCN(Cc1ccc3c(c1)Cc1ccccc1-3)CC2 | > 6.66 | IC50 (HEPG2TOX_HILL_SLOPE 11.9, HEPG2TOX_R_SQUARED 0.897, PBLUC_HILL_SLOPE 2.37, PBLUC_R_SQUARED 0.639, read-out: LUCIFERASE INFECTION ASSAY - IC50): 3.29 µM |
| O=C(Nc1cc(Cl)cc(Cl)c1)Nc1cccnc1N1CCC(C(F)(F)F)CC1 | 2.83 | IC50 (HEPG2TOX_HILL_SLOPE 11.8, HEPG2TOX_R_SQUARED 0.784, PBLUC_HILL_SLOPE 19.7, PBLUC_R_SQUARED 0.439, read-out: LUCIFERASE INFECTION ASSAY - IC50): 2.53 µM |
| CS(=O)(=O)c1ccc(C(=O)Nc2ccc(S(=O)(=O)NCc3ccco3)cc2)cc1[N+](=O)[O-] | > 10 | IC50 (HEPG2TOX_HILL_SLOPE 11.7, HEPG2TOX_R_SQUARED 0.595, read-out: LUCIFERASE INFECTION ASSAY - IC50): > 10 µM |
| O=C(Nc1ccccc1)Nc1ccc(C(=O)Nc2cc(C(F)(F)F)ccc2N2CCOCC2)s1 | 5.82 | IC50 (HEPG2TOX_HILL_SLOPE 11.7, HEPG2TOX_R_SQUARED 0.346, PBLUC_HILL_SLOPE 5.22, 24.2, PBLUC_R_SQUARED 0.290, 0.170, read-out: LUCIFERASE INFECTION ASSAY - IC50): 4.29 µM |
| CCOc1ccc(C(=O)Nc2ccc(N(CC)CC)cc2)cc1Br | 3.6 | IC50 (HEPG2TOX_HILL_SLOPE 11.9, HEPG2TOX_R_SQUARED 0.281, PBLUC_HILL_SLOPE 11.4, PBLUC_R_SQUARED 0.34, read-out: LUCIFERASE INFECTION ASSAY - IC50): 2.97 µM |
| O=C(c1cc2ccccc2cc1O)N1CCN(Cc2ccc3c(c2)OCO3)CC1 | 8.06 | IC50 (HEPG2TOX_HILL_SLOPE 11.9, HEPG2TOX_R_SQUARED 0.324, PBLUC_HILL_SLOPE 2.98, 3.06, PBLUC_R_SQUARED 0.831, 0.940, read-out: LUCIFERASE INFECTION ASSAY - IC50): 4.38 µM |
| CN(C)S(=O)(=O)c1ccc2oc(SCC(=O)Nc3cc(C(C)(C)C)no3)nc2c1 | 3.96 | IC50 (HEPG2TOX_HILL_SLOPE 11.6, HEPG2TOX_R_SQUARED 0.793, PBLUC_HILL_SLOPE 13.5, PBLUC_R_SQUARED 0.437, read-out: LUCIFERASE INFECTION ASSAY - IC50): 3.36 µM |
| O=C(/C=C/c1cccc([N+](=O)[O-])c1)c1cccc(N2CCCC2=O)c1 | 4.73 | IC50 (HEPG2TOX_HILL_SLOPE 11.8, HEPG2TOX_R_SQUARED 0.912, PBLUC_HILL_SLOPE 14.2, PBLUC_R_SQUARED 0.853, read-out: LUCIFERASE INFECTION ASSAY - IC50): 4.05 µM |
| Cc1cccc(Cn2c(CN3CCCCC3)nc3ccccc32)c1 | 9.84 | IC50 (HEPG2TOX_HILL_SLOPE 11.8, HEPG2TOX_R_SQUARED 0.182, PBLUC_HILL_SLOPE 4.42, PBLUC_R_SQUARED 0.595, read-out: LUCIFERASE INFECTION ASSAY - IC50): 5.99 µM |
| Cn1c(-c2ccsc2)cc2c(Nc3ccc(Oc4ccccc4)cc3)nccc21 | 3.44 | IC50 (HEPG2TOX_HILL_SLOPE 11.7, HEPG2TOX_R_SQUARED 0.553, PBLUC_HILL_SLOPE 10.6, PBLUC_R_SQUARED 0.752, read-out: LUCIFERASE INFECTION ASSAY - IC50): 2.8 µM |
| CC1CC(C)CN(Cc2ccc(C(=O)Nc3ccccc3)cc2)C1 (configuration not stated) | 7.47 | IC50 (HEPG2TOX_HILL_SLOPE 11.8, HEPG2TOX_R_SQUARED 0.877, PBLUC_HILL_SLOPE 2.66, PBLUC_R_SQUARED 0.557, read-out: LUCIFERASE INFECTION ASSAY - IC50): 3.28 µM |
| O=C1/C(=C/c2ccc(C(F)(F)F)cc2)CCC/C1=C\c1ccc(C(F)(F)F)cc1 | 7.87 | IC50 (HEPG2TOX_HILL_SLOPE 11.7, HEPG2TOX_R_SQUARED 0.984, PBLUC_HILL_SLOPE 3.19, PBLUC_R_SQUARED 0.77, read-out: LUCIFERASE INFECTION ASSAY - IC50): 3.95 µM |
